Test results from PubChem BioAssay (NCI).
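How tested: cells in 96-well plates exposed to compound for 48 hours at five concentrations. GI50 is the concentration that inhibits growth by half. TGI: concentration producing complete growth inhibition.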

Legend:
Test in all cases: growth of human tumour cells (NCI), 48 h
A498 renal = tested on: A498 renal
A549 NSCLC = tested on: A549 NSCLC
K-562 leukemia = tested on: K-562 leukemia
M14 melanoma = tested on: M14 melanoma
MOLT-4 leukemia = tested on: MOLT-4 leukemia
NCI-H460 lung = tested on: NCI-H460 lung
OVCAR-5 ovarian = tested on: OVCAR-5 ovarian
TK-10 renal = tested on: TK-10 renal
CCRF-CEM leukemia = tested on: CCRF-CEM leukemia

CCC[CH2][Sn]1([CH2]CCC)[O]C(=O)C(C(C)C)N=Cc2ccccc2[O]1 (stereo unspecified)
GI50 (A498 renal): 1.08 µM | TGI (A498 renal): > 100 µM | GI50 (A549 NSCLC): 1.59 µM | TGI (A549 NSCLC): 3.14 µM | GI50 (K-562 leukemia): 0.171 µM | TGI (K-562 leukemia): 1.04 µM | GI50 (M14 melanoma): 0.267 µM | TGI (M14 melanoma): 0.939 µM | GI50 (MOLT-4 leukemia): 0.236 µM | TGI (MOLT-4 leukemia): 1.04 µM | GI50 (NCI-H460 lung): 1.28 µM | TGI (NCI-H460 lung): 2.57 µM | GI50 (OVCAR-5 ovarian): 1.61 µM | TGI (OVCAR-5 ovarian): 2.98 µM | GI50 (TK-10 renal): 0.272 µM | TGI (TK-10 renal): 0.73 µM

N.N.N.N.N.O=C([O-])c1nn[n-]n1.[Cl-].[Co+3]
GI50 (A549 NSCLC): > 100 µM | TGI (A549 NSCLC): > 100 µM | GI50 (CCRF-CEM leukemia): > 100 µM | TGI (CCRF-CEM leukemia): > 100 µM | GI50 (K-562 leukemia): > 100 µM | TGI (K-562 leukemia): > 100 µM | GI50 (M14 melanoma): > 100 µM | TGI (M14 melanoma): > 100 µM | GI50 (MOLT-4 leukemia): > 100 µM | TGI (MOLT-4 leukemia): > 100 µM | GI50 (NCI-H460 lung): > 100 µM | TGI (NCI-H460 lung): > 100 µM | GI50 (OVCAR-5 ovarian): > 100 µM | TGI (OVCAR-5 ovarian): > 100 µM | GI50 (TK-10 renal): > 100 µM | TGI (TK-10 renal): > 100 µM

Nc1ccc(/C=C/c2ccnc3ccccc23)cc1
TGI (A549 NSCLC): 71.4 µM | TGI (CCRF-CEM leukemia): 40.7 µM | TGI (K-562 leukemia): 44 µM | TGI (M14 melanoma): 51.5 µM | TGI (MOLT-4 leukemia): 38.7 µM | TGI (NCI-H460 lung): 49.1 µM | TGI (OVCAR-5 ovarian): 60.9 µM | TGI (TK-10 renal): 57.7 µM

CC(C)=CCC/C(=C/CC/C(C)=C/CCc1ccoc1)C(=O)O
TGI (A498 renal): > 100 µM | TGI (A549 NSCLC): > 100 µM | TGI (CCRF-CEM leukemia): > 100 µM | TGI (K-562 leukemia): > 100 µM | TGI (M14 melanoma): > 100 µM | TGI (MOLT-4 leukemia): > 100 µM | TGI (NCI-H460 lung): > 100 µM | TGI (OVCAR-5 ovarian): > 100 µM

CC[O-].CC[O-].O=C1c2ccccc2C(=O)c2c(O)ccc([O-])c21.O=C1c2ccccc2C(=O)c2c(O)ccc([O-])c21.[Ti+4]
TGI (A498 renal): > 100 µM | TGI (A549 NSCLC): > 100 µM | TGI (CCRF-CEM leukemia): > 100 µM | TGI (K-562 leukemia): > 100 µM | TGI (M14 melanoma): > 100 µM | TGI (MOLT-4 leukemia): > 100 µM | TGI (NCI-H460 lung): > 100 µM | TGI (OVCAR-5 ovarian): > 100 µM | TGI (TK-10 renal): > 100 µM

COc1c2c(cc3nc4ccccc4nc13)CCC(C(C)(C)O)C2 (stereo unspecified)
TGI (A498 renal): > 100 µM | TGI (A549 NSCLC): > 100 µM | TGI (CCRF-CEM leukemia): > 100 µM | TGI (K-562 leukemia): > 100 µM | TGI (M14 melanoma): > 100 µM | TGI (MOLT-4 leukemia): > 100 µM | TGI (NCI-H460 lung): > 100 µM | TGI (OVCAR-5 ovarian): > 100 µM | TGI (TK-10 renal): > 100 µM

NC1=NN(c2ccccc2)C(=O)C1C(=O)CCC(=O)Nc1cccc(C(F)(F)F)c1 (stereo unspecified)
TGI (A549 NSCLC): > 100 µM | TGI (CCRF-CEM leukemia): > 100 µM | TGI (K-562 leukemia): > 100 µM | TGI (M14 melanoma): > 100 µM | TGI (MOLT-4 leukemia): > 100 µM | TGI (NCI-H460 lung): > 100 µM | TGI (OVCAR-5 ovarian): > 100 µM | TGI (TK-10 renal): > 100 µM

Cn1cc(C(=O)c2ccccc2)ccc1=O
TGI (A549 NSCLC): > 100 µM | TGI (CCRF-CEM leukemia): > 100 µM | TGI (K-562 leukemia): > 100 µM | TGI (M14 melanoma): > 100 µM | TGI (MOLT-4 leukemia): > 100 µM | TGI (NCI-H460 lung): > 100 µM | TGI (OVCAR-5 ovarian): > 100 µM | TGI (TK-10 renal): > 100 µM

O=C(O)CN(c1ccccc1)S(=O)(=O)c1ccccc1[N+](=O)[O-]
TGI (A498 renal): > 100 µM | TGI (A549 NSCLC): > 100 µM | TGI (CCRF-CEM leukemia): > 100 µM | TGI (M14 melanoma): > 100 µM | TGI (MOLT-4 leukemia): > 100 µM | TGI (NCI-H460 lung): > 100 µM | TGI (OVCAR-5 ovarian): > 100 µM | TGI (TK-10 renal): > 100 µM

Cc1noc(C)c1CCCOC1COc2ccccc2OCCOCCOc2ccccc2OC1
TGI (A498 renal): > 100 µM | TGI (A549 NSCLC): > 100 µM | TGI (K-562 leukemia): > 100 µM | TGI (M14 melanoma): > 100 µM | TGI (OVCAR-5 ovarian): > 100 µM | TGI (TK-10 renal): > 100 µM

CCCCCCCCCCCCCC1CCC(CC)N1 (stereo unspecified)
TGI (A498 renal): 36.7 µM | TGI (A549 NSCLC): 36.2 µM | TGI (CCRF-CEM leukemia): 18.2 µM | TGI (K-562 leukemia): 33.3 µM | TGI (M14 melanoma): 31.8 µM | TGI (MOLT-4 leukemia): 30.6 µM | TGI (NCI-H460 lung): 18.5 µM | TGI (OVCAR-5 ovarian): 30.3 µM | TGI (TK-10 renal): 32 µM

CC1=C(C)CC2(CCCCC2=O)S(=O)C1 (stereo unspecified)
TGI (A498 renal): > 100 µM | TGI (A549 NSCLC): > 100 µM | TGI (CCRF-CEM leukemia): > 100 µM | TGI (K-562 leukemia): > 100 µM | TGI (M14 melanoma): > 100 µM | TGI (MOLT-4 leukemia): > 100 µM | TGI (NCI-H460 lung): > 100 µM | TGI (OVCAR-5 ovarian): > 100 µM | TGI (TK-10 renal): > 100 µM

Cc1cc(C)nc(NS(=O)(=O)c2ccc(Nc3c4ccccc4nc4c(C(=O)Nc5ccc(S(=O)(=O)Nc6cc(C)on6)cc5)cccc34)cc2)n1
TGI (A498 renal): 51.5 µM | TGI (A549 NSCLC): > 100 µM | TGI (K-562 leukemia): 80.1 µM | TGI (M14 melanoma): 41.7 µM | TGI (MOLT-4 leukemia): 64 µM | TGI (NCI-H460 lung): 61 µM | TGI (OVCAR-5 ovarian): 59 µM | TGI (TK-10 renal): 96 µM

CCOC1=NC(=O)CC(c2ccccc2)S1 (stereo unspecified)
TGI (A498 renal): > 100 µM | TGI (A549 NSCLC): > 100 µM | TGI (CCRF-CEM leukemia): > 100 µM | TGI (K-562 leukemia): > 100 µM | TGI (M14 melanoma): > 100 µM | TGI (MOLT-4 leukemia): > 100 µM | TGI (NCI-H460 lung): > 100 µM | TGI (OVCAR-5 ovarian): > 100 µM

Cc1nc2ccccc2c(=O)n1NC(=O)c1ccccn1
TGI (A498 renal): > 100 µM | TGI (A549 NSCLC): > 100 µM | TGI (CCRF-CEM leukemia): > 100 µM | TGI (K-562 leukemia): > 100 µM | TGI (M14 melanoma): > 100 µM | TGI (MOLT-4 leukemia): > 100 µM | TGI (NCI-H460 lung): > 100 µM | TGI (TK-10 renal): > 100 µM

COC(=O)c1cc(Br)c(Br)n1C
TGI (A498 renal): > 100 µM | TGI (A549 NSCLC): > 100 µM | TGI (CCRF-CEM leukemia): > 100 µM | TGI (K-562 leukemia): > 100 µM | TGI (M14 melanoma): > 100 µM | TGI (MOLT-4 leukemia): > 100 µM | TGI (OVCAR-5 ovarian): > 100 µM | TGI (TK-10 renal): > 100 µM
